# System: lactating Holstein cows in sub-clinical ketosis
# Assay: Change of daily milk production after a single intravenous injection in lactating Holstein cows with sub-clinical ketosis
# Type: in vivo
# Source text: Ten lactating Holstein cows in the immediate post-partum period of which milk production was 10-15% decreased in comparison with that of one week before the beginning of test due to sub-clinical ketosis were used. All cows were supplied with a complete feed for lactating cows composed of corn silage and concentrate containing grains, oil meals, animal proteins and vitamins/minerals. On the first day in the test, a solution containing 29 g of L-glutamine dissolved in 1 liter of distilled water for injection was injected into the cows through the cervical vein. The cows were then milked twice a day for one month, and the milk amount was measured. Ten lactating Holstein cows in sub-clinical ketosis were selected as negative controls according to the same criterion as in Example. On the first day in the test, 1 liter of saline was injected through the cervical vein as the negative control. On the other hand, nine lactating Holstein cows selected according to the same criterion as described above were used. On the first day in the test, 1 liter of a 25% dextrose solution was injected through the cervical vein as the positive control. Both the negative and positive controls were then supplied with the same complete feed as used in Example. The cows were then milked twice a day for one month, and the milk amount was measured. […] The X-axis indicates days after administration, and the Y-axis indicates the increment of the milk amount from that on the first day of the test. […] The increase of the milk amount was about 12 kg per day at maximum. […] Thus, the present invention can provide a novel method which is inexpensive and safe for preventing decrease of milk amount in mammals.
compound,measurement,setting,value
"NC(=O)CC[C@H](N)C(=O)O [glutamine, L-glutamine]","milk amount increase on the average, from that on the first day of the test","single injection through the cervical vein on the first day (29 g L-glutamine in 1 liter, or 1 liter of 25% dextrose solution), milked twice a day for one month",7.6 kg per day
same,"increase of the milk amount at maximum, from that on the first day of the test","single injection through the cervical vein on the first day (29 g L-glutamine in 1 liter, or 1 liter of 25% dextrose solution), milked twice a day for one month, FIG. 1",about 12 kg per day
same,course of the change of the milk amount after administration,"single injection through the cervical vein on the first day, followed for one month, FIG. 1","increased immediately after administration, and this tendency lasted even one month after administration"
